# Measured values reported in ChEMBL document CHEMBL5375955, “Discovery of New Fusobacterium nucleatum Inhibitors to Attenuate Migratory Capability of Colon Cancer Cells by the Drug Repositioning Strategy” (J Med Chem, 2023).
# Tested on: Fusobacterium nucleatum
# Assay: Antibacterial activity against Fusobacterium nucleatum ATCC 23726 assessed as bacterial growth inhibition incubated for 48 hrs by broth dilution susceptibility test
# Format: functional
row,MIC50 [µg/mL],SMILES
1,> 64,O=C(Nc1ccon1)c1ccc([N+](=O)[O-])cc1I
2,> 64,NC(=O)c1ccc(NC(=O)c2ccc(C(F)(F)F)cc2[N+](=O)[O-])cc1
3,16,CC1CS(=O)(=O)CCN1/N=C/c1ccc([N+](=O)[O-])o1 (stereo not drawn) [NIFURTIMOX]
4,4,O=[N+]([O-])c1ccc(COc2ccc(C(F)(F)F)cc2[N+](=O)[O-])o1
5,16,O=C1OCCN1/N=C/c1ccc([N+](=O)[O-])o1 [FURAZOLIDONE]
6,8,CSc1ccc(OCc2ncc([N+](=O)[O-])n2C)cc1 [FEXINIDAZOLE]
7,64,Cc1ccc(OC(=O)c2ccc(C(F)(F)F)cc2[N+](=O)[O-])c(C(N)=O)c1
8,> 64,O=C(NCc1ccccc1C(F)(F)F)c1ccc(C(F)(F)F)cc1[N+](=O)[O-]
9,64,O=C(Cn1cnc(=O)c2ccc(Cl)cc21)Nc1ccc([N+](=O)[O-])cc1Cl
10,64,O=C(NCc1ccncc1)c1ccc(C(F)(F)F)cc1[N+](=O)[O-]
11,1,Cc1ncc([N+](=O)[O-])n1C [DIMETRIDAZOLE]
12,2,Cn1c([N+](=O)[O-])cnc1COC(N)=O [RONIDAZOLE]
13,8,OC1(c2ccc(Cl)c(C(F)(F)F)c2)CCN(CCCC(c2ccc(F)cc2)c2ccc(F)cc2)CC1 [PENFLURIDOL]
14,> 64,O=C(CCc1ccc([N+](=O)[O-])cc1)Nc1ccon1
15,16,CC(C)(C)c1ccc(C(O)CCCN2CCC(C(O)(c3ccccc3)c3ccccc3)CC2)cc1 (stereo not drawn) [TERFENADINE]
16,> 64,COC(=O)OCc1ccc(NC(=O)c2ccc(C(F)(F)F)cc2[N+](=O)[O-])cc1
17,> 64,Cc1cc(=O)oc2ccc(OC(=O)c3ccc([N+](=O)[O-])c(F)c3)cc12
18,> 64,O=C(Nc1cc(Cl)cc([N+](=O)[O-])c1)c1ccc(C(F)(F)F)cc1[N+](=O)[O-]
19,> 64,NC(=O)c1ccc(NC(=O)c2ccc(C(F)(F)F)cc2)cc1
20,0.125,CN(N=O)C(=O)N[C@@H](C=O)[C@@H](O)[C@H](O)[C@H](O)CO [STREPTOZOCIN]
21,> 64,O=C(Nc1ccon1)c1ccc([N+](=O)[O-])c(Br)c1
22,16,O=C1NCCN1CCN1CCC(c2cn(-c3ccc(F)cc3)c3ccc(Cl)cc23)CC1 [SERTINDOLE]
23,> 64,Cc1cc(NC(=O)c2ccc(C(F)(F)F)cc2[N+](=O)[O-])on1

row,SMILES,MIC50 [µg/mL]
1,O=C(Nc1ccc([N+](=O)[O-])c(Cl)c1)c1ccc([N+](=O)[O-])cc1F,> 64
2,CS(=O)(=O)c1ccc(C(=O)C2C(=O)CCCC2=O)c(Cl)c1 [SULCOTRIONE],> 64
3,CS(=O)(=O)c1ccc(C(=O)C2C(=O)CCCC2=O)c(Cl)c1COCC(F)(F)F [TEMBOTRIONE],> 64
4,Cl.Cl.Cl.O[C@@H](COc1cccc2ncccc12)CN1CCN([C@@H]2c3ccccc3[C@@H]3[C@H](c4ccccc42)C3(F)F)CC1 [ZOSUQUIDAR TRIHYDROCHLORIDE],16
5,CS(=O)(=O)c1ccc(C(=O)C2C(=O)CCCC2=O)c([N+](=O)[O-])c1 [MESOTRIONE],32
